Measurements: patent US9878999B2, “Proteasome chymotrypsin-like inhibition using PI-1833 analogs” (H. Lee Moffitt Cancer Center and Research Institute, Inc., priority 2011, dated 2018)
“And” between values parts separate entries of the source, which are not always exact repeats. Equal values may be shown once. Read-outs that look alike come from different tables or passages of the source. Blank lines part the entries; values can stand above or below the molecule they belong to.

Molecular target: CT-L activity of purified 20S proteasome (Homo sapiens, UniProt P20618+P28074)
Assay: in vitro CT-L activity of purified 20S proteasome
Assay type: biochemical
Settings: for inhibition at 10 µM: Table 5, @ 10 μM, read-out: Screening Results (% Inhibition @ 10 μM) Chymotrypsin-like
[1] = Table 1, read-out: IC50 (μM) Chymotrypsin-like activity
[2] = Table 5, read-out: IC50 (μM) Chymotrypsin-like

Structure (SMILES): Cc1ccc(OC(C)C(=O)N(Cc2nc(-c3cccnc3)no2)C(C)C)cc1 (centres unmarked)
inhibition at 10 µM: 92.9 ± 1.7% | IC50 [2]: 0.38 ± 0.099 µM

Structure (SMILES): CCCc1ccc(O[C@H](C)C(=O)N(Cc2nc(-c3cccnc3)no2)C(C)C)cc1
IC50 [2]: 2.39 µM and 1.99 µM

Structure (SMILES): CC(C)N(Cc1nc(-c2ccccc2)no1)C(=O)COc1ccc(F)cc1 [drawing 131]
IC50 [2]: 8.73 ± 3.05 µM

Structure (SMILES): Cc1ccc(-c2noc(CN(C(=O)COc3ccc(C(F)(F)F)cc3)C(C)C)n2)cc1 [drawing 118]
IC50 [2]: 1.08 ± 0.33 µM

Structure (SMILES): CC(C)N(Cc1nc(-c2ccc(Cl)cc2)no1)C(=O)COc1ccc(C(F)(F)F)cc1 [drawing 114]
IC50 [2]: 0.58 µM and 0.857 µM

Structure (SMILES): Cc1ccc(OCC(=O)N(Cc2nc(-c3ccc(C(F)(F)F)cc3)no2)C(C)C)cc1 [drawing 112]
IC50 [2]: 0.97 ± 0.15 µM

Structure (SMILES): CC(C)N(Cc1nc(-c2ccccc2)no1)C(=O)COc1ccc(-c2ccccc2)cc1 [drawing 132]
inhibition at 10 µM: < 70%

Structure (SMILES): CCCc1ccc(O[C@@H](C)C(=O)N(Cc2nc(-c3cccnc3)no2)C(C)C)cc1 (single isomer, unassigned) [drawing 176]
IC50 [2]: 0.075 µM

Structure (SMILES): Cc1ccc(OCC(=O)N(Cc2nc(-c3ccc(C)cc3)no2)C(C)(C)C)cc1 [drawing 142]
inhibition at 10 µM: -108 ± 119%

Structure (SMILES): Cc1ccc(OCC(=O)N(Cc2nc(-c3ccc(C)cc3)no2)C(C)C)cc1 [PI-1833 (23)]
IC50 (Table 4, read-out: IC50 (μM) Chymotrypsin-like activity): 0.716 ± 0.27 µM

Structure (SMILES): CC(C)N(Cc1nc(-c2ccc(C(F)(F)F)cc2)no1)C(=O)COc1ccc(C(F)(F)F)cc1 [drawing 115]
IC50 [2]: 2.53 ± 0.95 µM

Structure (SMILES): CC(C)N(Cc1nc(-c2cccnc2)no1)C(=O)COc1ccc(C2CCCCC2)cc1 [drawing 169]
IC50 [2]: 1.36 ± 0.184 µM

Structure (SMILES): CCN(Cc1nc(-c2ccc(C)cc2)no1)C(=O)COc1ccc(C)cc1 [drawing 128]
IC50 [2]: 8.98 ± 5.21 µM

Structure (SMILES): CC(C)N(Cc1nc(-c2ccccc2)no1)C(=O)CCc1ccc(C(F)(F)F)cc1 [drawing 183]
IC50 (Table 9, read-out: IC50 (μM) Chymotrypsin-like): 15.7 µM

Further lines, results first:

CT-L inhibitory activity, in words: failed to improve the CT-L activity | IC50 [1]: 65.9 ± 33.7 µM | fold loss of CT-L activity (compared to 11ad or 11ae): > 35 fold
Structure (SMILES): CC(C)N(Cc1nc(-c2cccnc2)no1)C(=O)COc1ccc(C(C)(C)C)cc1 [11aj, N-Isopropyl-2-(4-tert-butylphenoxy)-N-((3-(pyridin-3-yl)-1,2,4-oxadiazol-5-yl)methyl)acetamide]

fold loss of CT-L activity (compared to 1): 3 fold | IC50 (read-out: IC50, in vitro CT-L): 2.37 µM
Structure (SMILES): Cc1ccc(OCC(=O)N(Cc2nc(-c3ccc(C)cc3)no2)CC(C)C)cc1 [12a, N-Isobutyl-N-((3-p-tolyl-1,2,4-oxadiazol-5-yl)methyl)-2-(p-tolyloxy)acetamide]

IC50 [1]: 1.36 ± 0.184 µM | fold loss of CT-L activity (compared to 11ad or 11ae): 40 fold
Structure (SMILES): CC(C)N(Cc1nc(-c2cccnc2)no1)C(=O)COc1ccc(C2CCCCC2)cc1 [11ah]

IC50 [1]: 1.4 ± 0.185 µM | IC50 (read-out: IC50, in vitro CT-L): ~1 µM
Structure (SMILES): CC(C)N(Cc1nc(-c2ccc(C(F)(F)F)cc2)no1)C(=O)COc1ccc(Cl)cc1 [11f, 2-(4-Chlorophenoxy)-N-isopropyl-N-((3-(4-(trifluoromethyl)phenyl)-1,2,4-oxadiazol-5-yl)methyl)acetamide]

IC50 (read-out: IC50, in vitro CT-L): 1.07 µM
Structure (SMILES): CC(C)N(Cc1nc(-c2ccc(Cl)cc2)no1)C(=O)COc1ccc(Cl)cc1 [11g, 2-(4-Chlorophenoxy)-N-((3-(4-chlorophenyl)-1,2,4-oxadiazol-5-yl)methyl)-N-isopropylacetamide]

IC50 [1]: 1.27 ± 0.226 µM | fold loss of CT-L activity (compared to 11ad or 11ae): 40 fold | IC50 (read-out: IC50, in vitro CT-L): 1.26 µM
Structure (SMILES): CCCc1ccc(OCC(=O)N(Cc2nc(-c3ncccn3)no2)C(C)C)cc1 [11ao, N-Isopropyl-2-(4-propylphenoxy)-N-((3-(pyrimidin-2-yl)-1,2,4-oxadiazol-5-yl)methyl)acetamide]

Chymotrypsin-like activity, % @ 10 μM (Table 2, @ 10 μM): −108.42 ± 118.76%
Structure (SMILES): Cc1ccc(OCC(=O)N(Cc2nc(-c3ccc(C)cc3)no2)C(C)(C)C)cc1 [12e]

IC50 (read-out: IC50, in vitro CT-L): 2.53 µM
Structure (SMILES): CC(C)N(Cc1nc(-c2ccc(C(F)(F)F)cc2)no1)C(=O)COc1ccc(C(F)(F)F)cc1 [11c, N-Isopropyl-2-(4-(trifluoromethyl)phenoxy)-N-((3-(4-(trifluoromethyl)phenyl)-1,2,4-oxadiazol-5-yl)methyl)acetamide]

IC50 [1]: 1.12 ± 0.33 µM | IC50 (read-out: IC50, in vitro CT-L): ~1 µM
Structure (SMILES): Cc1ccc(-c2noc(CN(C(=O)COc3ccc(Cl)cc3)C(C)C)n2)cc1 [11e, 2-(4-Chlorophenoxy)-N-isopropyl-N-((3-p-tolyl-1,2,4-oxadiazol-5-yl)methyl)acetamide]
